For series [1], the target named is T1, recombinant MEN1 protein and fluorescein-labeled MLL4-43 peptide (Homo sapiens, UniProt O00255).
T1 construct: purchased Creativebiomart MEN1-35H
T1 sequence (O00255 1-610): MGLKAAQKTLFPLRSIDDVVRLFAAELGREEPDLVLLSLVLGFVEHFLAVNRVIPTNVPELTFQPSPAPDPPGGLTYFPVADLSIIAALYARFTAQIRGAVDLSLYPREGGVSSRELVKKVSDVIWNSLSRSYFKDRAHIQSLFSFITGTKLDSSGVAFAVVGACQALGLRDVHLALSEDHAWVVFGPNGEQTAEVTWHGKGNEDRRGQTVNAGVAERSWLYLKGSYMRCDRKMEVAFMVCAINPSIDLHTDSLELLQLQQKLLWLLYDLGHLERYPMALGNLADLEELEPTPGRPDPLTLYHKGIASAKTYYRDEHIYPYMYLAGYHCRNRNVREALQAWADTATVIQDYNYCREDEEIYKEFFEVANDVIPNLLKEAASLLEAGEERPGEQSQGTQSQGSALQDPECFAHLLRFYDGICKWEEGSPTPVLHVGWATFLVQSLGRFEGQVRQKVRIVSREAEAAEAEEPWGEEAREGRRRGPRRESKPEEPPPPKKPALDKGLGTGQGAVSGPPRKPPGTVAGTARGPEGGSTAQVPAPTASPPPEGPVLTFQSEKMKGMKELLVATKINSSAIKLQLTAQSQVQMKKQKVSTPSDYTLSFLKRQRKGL
Kind of series: Primary fluorescence polarization assay of MEN1 / MLL4-43 interaction inhibition. Format: binding. The note with it: MEN1 10 nM, MLL4-43 0.5 nM, 1 hour at room temperature. How it is done: Compound activity was determined using recombinant MEN1 protein (Creativebiomart, Cat #MEN1-35H) and a custom fluorescein-labeled MLL4-43 peptide (Eton Bioscience Inc.). Interaction between MEN1 and MLL4-43 in the presence of compounds was determined by fluorescence polarization assay using a Microplate Reader ClarioStar Plus. The reaction was carried out in assay buffer (50 mM TRIS-HCl PH 7.4-7.6, 50 mM NaCl, 1 mM DTT, 0.1 mg/ml BSA). The compounds were dispensed on a 384 well Diamond Well Plate (Axigen, Cat #P-384-120 SQ-C—S) using the Biomek FX liquid handling system at 100× solutions of compounds in DMSO. 2× MEN1 mix (final concentration of MEN1 10 nM) was prepared in Assay buffer and 10 μl of mixture per well was added into 384w white Reaction plate with NBS(Corning, Cat #4513). 10 μl of Assay buffer w/o MENI was used for negative control. Plates were centrifuged for 1 min at 100 g. Next step the Compounds were added to Reaction plate using Biomek station via following steps: 3 μl of 100× compounds (in DMSO) were mixed thoroughly with 27 μl Assay Buffer, then 2 μl of this mixture was added to Reaction plate with 10 μl of MENI mix. Plates were centrifuged for 1 min at 100 g and incubated for 20 min at room temperature. Next 8 μL of MLL4-43 peptide per well was added to final concentration of MLL 0.5 nM. Plates were incubated for 1 hour at room temperature. Then fluorescence polarization was measured using Microplate Reader.

A further series concerns MV4-11. Nature of the series: MV4-11 Cellular Growth Inhibition Assay (CellTiter-Glo). The conditions noted are these: Homo sapiens, 168 h, MV4-11 cells, 7 days of incubation. The class given is cell-based. On the procedure: (§1) HEK293 (Institute of Cytology Russian Academy of Science), MV4-11 (ATCC, CRL-9591), MOLM-13 (AcceGen, ABC-TC517S) were seeded at a density of 500 cells per well (HEK293) and 2000 cells per well (MV4-11, MOLM-13) in a 384-well clear bottom plate (Greiner Cat #781090) in 45 μl total volume of DMEM (PanEco, Cat #C420, Russia) or RPMI (PanEco, Cat #C330, Russia) with 10% FBS(HyClone Cat #SV30160.03). HEK293 were allowed to adhere overnight at 37° C., 5% CO2. 500× compounds solutions in DMSO (Sigma Cat #D2650) were prepared into Cmpnds plate (Diamond Well Plate, Axigen, Cat #P-384-120 SQ-C—S) and DMSO only control was included. 1 μl of 500× compounds (Cmpnds plate) was added to 49 μl of culture medium into Dilution plate (Diamond Well Plate, Axigen, Cat #P-384-120 SQ-C—S), mixed and then 5 μl of 10× compounds solutions were transferred to cells followed by centrifugation at 100 g for 1 min. Final DMSO concentration was 0.2%. After 3 days of incubation, 10 μl of 1× compounds were added to cells. After 7 days of incubation, 12 μl of CellTiter-Glo (Promega, CAT #G7572) were added to the cells, plate was centrifuged at 100 g for 1 min and luminescence signal was measured using Microplate Reader (CLARIOStar).

A further series has as its system MOLM-13. Kind of series: MOLM-13 Cellular Growth Inhibition Assay (CellTiter-Glo). The class given is cell-based. The note with it: Homo sapiens, 168 h, MOLM-13 cells, 7 days of incubation. How it is done: as §1
A short description of series [2]: HEK293 Cellular Growth Inhibition Assay (CellTiter-Glo). The note with it: human, HEK293 cells, 7 days of incubation. The class given is cell-based. How it is done:
as §1
(In general: In ATP-based viability assays light output follows the ATP content of the culture.)

pEC50: −log10 of the molar value.

As a reminder, the pEC50 is −log10 of the EC50, conventionally taken in molar units. As a reminder, the CC50 is the concentration giving 50% cytotoxicity. A higher CC50 goes with lower toxicity to the cells.

As for `CCS(=O)(=O)Nc1ccc(CN2CCC(Nc3ncnc4ccc(CC(F)(F)F)cc34)CC2)cc1` [Compound 36, N-(4-((4-((6-(2,2,2-trifluoroethyl)quinazolin-4-yl)amino)piperidin-1-yl)methyl)phenyl)ethanesulfonamide], the pEC50 in series [1] is 5.30 to 6.00. Besides, the CC50 in the series with MV4-11 and with MOLM-13 was 5 to 10 µM throughout. Also, the CC50 at 7 days in series [2] lay in the range of 15 to 30 µM.

Turning to `CCS(=O)(=O)N[C@H]1CC[C@H](CN2CCC3(CC2)CN(c2ncnc4ccc(CCc5ccncc5)cc24)C3)CC1` [Compound 48, N-((1R,4R)-4-((2-(6-(2-(pyridin-4-yl)ethyl)quinazolin-4-yl)-2,7-diazaspiro[3.5]nonan-7-yl)methyl)cyclohexyl)ethanesulfonamide], the pEC50 in series [1] is 6.00 to 6.30. Further, the CC50 in the series on MV4-11 is greater than 10 µM; in the series with MOLM-13 it was greater than 20 µM. Moreover, in series [2], the CC50 at 7 days was 30 to 50 µM.

Turning to `CCS(=O)(=O)N[C@H]1CC[C@H](CN2CCC3(CC2)CN(c2ncnc4ccc(CCc5cccc(F)c5)cc24)C3)CC1` [Compound 61, N-((1R,4R)-4-((2-(6-(3-fluorophenethyl)quinazolin-4-yl)-2,7-diazaspiro[3.5]nonan-7-yl)methyl)cyclohexyl)ethanesulfonamide], the pEC50 in series [1] was 6.30 to 7.12. The CC50 lay in the range of 1 to 2.5 µM with MV4-11 and 1 to 5 µM in the series with MOLM-13. Further, the CC50 at 7 days in series [2] is 5 to 15 µM.

As to `CCS(=O)(=O)Nc1cccc(CN2CC3(CCN(c4ncnc5ccc(CC(F)(F)F)cc45)CC3)C2)c1` [Compound 44, N-(3-((7-(6-(2,2,2-trifluoroethyl)quinazolin-4-yl)-2,7-diazaspiro[3.5]nonan-2-yl)methyl)phenyl)ethanesulfonamide], in series [1], the pEC50 was 6.00 to 6.30. Also, the results for the half-maximal cytotoxic concentration (CC50) in the series with MV4-11 and in the series with MOLM-13 were 1 to 2.5 µM and 5 to 10 µM, respectively. The compound further showed a CC50 at 7 days in series [2] of 5 to 15 µM.

`CCS(=O)(=O)N1Cc2ccc(CN3CCC4(CC3)CN(c3ncnc5ccc(CC(F)(F)F)cc35)C4)cc2C1` [Compound 94, 4-(7-((2-(ethylsulfonyl)isoindolin-5-yl)methyl)-2,7-diazaspiro[3.5]nonan-2-yl)-6-(2,2,2-trifluoroethyl)quinazoline]: the negative logarithm of the EC50 (pEC50) in series [1] was 6.30 to 7.12. For the same compound, the CC50 lay within 2.5 to 5 µM in the series with MV4-11 and 5 to 10 µM in the series on MOLM-13. Further, the half-maximal cytotoxic concentration (CC50) at 7 days in series [2] lay within 5 to 15 µM.

For the compound `CCS(=O)(=O)N[C@H]1CC[C@H](CN2CCC3(CC2)CN(c2ncnc4ccc(C#Cc5ccccc5)cc24)C3)CC1` [Compound 53, N-((1R,4R)-4-((2-(6-(phenylethynyl)quinazolin-4-yl)-2,7-diazaspiro[3.5]nonan-7-yl)methyl)cyclohexyl)ethanesulfonamide], the negative-log EC50 (pEC50) in series [1] is less than 5.30. In addition, the values for the cytotoxic concentration (CC50) in the series with MV4-11 and in the series on MOLM-13 were 2.5 to 5 µM and 5 to 10 µM, respectively. The CC50 at 7 days in series [2] was no more than 5 µM.

With `FC(F)(F)Cc1ccc2ncnc(N3CC4(CCN(Cc5cccc6[nH]ccc56)CC4)C3)c2c1` [Compound 83, 4-(7-((1H-indol-4-yl)methyl)-2,7-diazaspiro[3.5]nonan-2-yl)-6-(2,2,2-trifluoroethyl)quinazoline], the negative-log EC50 (pEC50) in series [1] was no less than 7.12. The results for the CC50 in the series on MV4-11 and in the series on MOLM-13 were 1 to 2.5 µM and 5 to 10 µM, respectively. The compound further showed a CC50 at 7 days in series [2] of 5 to 15 µM.

Regarding `CCS(=O)(=O)N[C@H]1CC[C@H](Cn2cc(CNc3ncnc4ccc(CC(F)(F)F)cc34)nn2)CC1` [Compound 69, N-((1R,4R)-4-((4-(((6-(2,2,2-trifluoroethyl)quinazolin-4-yl)amino)methyl)-1H-1,2,3-triazol-1-yl)methyl)cyclohexyl)ethanesulfonamide], the pEC50 in series [1] is less than 5.30. Also, the values for the CC50 in the series on MV4-11 and in the series with MOLM-13 were greater than 10 µM and 5 to 10 µM, respectively. In addition, in series [2], the CC50 at 7 days was 30 to 50 µM.

Regarding `CCS(=O)(=O)N[C@H]1CC[C@H](CN2CCC3(CC2)CN(c2ncnc4ncc(CC(F)(F)F)cc24)C3)CC1` [Compound 65, N-(1R,4R)-[4-[[2-[6-(2,2,2-trifluoroethyl)pyrido[2,3-d]pyrimidin-4-yl]-2,7-diazaspiro[3.5]nonan-7-yl]methyl]cyclohexyl]ethanesulfonamide], the pEC50 in series [1] was 6.30 to 7.12. In addition, the 50% cytotoxic concentration (CC50) in the series on MV4-11 lay in the range of 1 to 2.5 µM; with MOLM-13 it was 1 to 5 µM. Further, the CC50 at 7 days in series [2] was greater than 50 µM.

Consider `CCS(=O)(=O)N[C@H]1CC[C@H](CN2CCC3(CC2)CN(c2ncnc4ccc(CC(C)c5ccccc5)cc24)C3)CC1` (mixture of isomers) [Compound 59, N-((1R,4R)-4-((2-(6-((RS)-2-phenylpropyl)quinazolin-4-yl)-2,7-diazaspiro[3.5]nonan-7-yl)methyl)cyclohexyl)ethanesulfonamide], for which the negative logarithm of the EC50 (pEC50) in series [1] is 6.30 to 7.12. Also, the CC50 in the series on MV4-11 and in the series with MOLM-13 was no more than 1 µM in each case. This compound also showed a cytotoxic concentration (CC50) at 7 days in series [2] of no more than 5 µM.

For the compound `CCS(=O)(=O)N[C@H]1CC[C@H](CNc2ccc(CN3CCC4(CC3)CN(c3ncnc5ccc(CC(F)(F)F)cc35)C4)cc2)CC1` [Compound 79, N-((1R,4R)-4-(((4-((2-(6-(2,2,2-trifluoroethyl)quinazolin-4-yl)-2,7-diazaspiro[3.5]nonan-7-yl)methyl)phenyl)amino)methyl)cyclohexyl)ethanesulfonamide], the pEC50 in series [1] is 6.30 to 7.12. The figures for the 50% cytotoxic concentration (CC50) in the series on MV4-11 and with MOLM-13 were greater than 10 µM and 1 to 5 µM, respectively. The CC50 at 7 days in series [2] is no more than 5 µM.

Take `FC(F)(F)Cc1ccc2ncnc(N3CC4(CCN(Cc5ccc6[nH]ccc6c5)CC4)C3)c2c1` [Compound 90, 4-(7-((1H-indol-5-yl)methyl)-2,7-diazaspiro[3.5]nonan-2-yl)-6-(2,2,2-trifluoroethyl)quinazoline]: the pEC50 in series [1] was 6.00 to 6.30. Also, the half-maximal cytotoxic concentration (CC50) is 2.5 to 5 µM with MV4-11 and 5 to 10 µM in the series on MOLM-13. The compound further registered a CC50 at 7 days in series [2] of 5 to 15 µM.

Turning to `CCS(=O)(=O)Nc1ccc(CN2CC3(CCN(c4ncnc5ccc(CC(F)(F)F)cc45)CC3)C2)cc1` [Compound 43, N-(4-((7-(6-(2,2,2-trifluoroethyl)quinazolin-4-yl)-2,7-diazaspiro[3.5]nonan-2-yl)methyl)phenyl)ethanesulfonamide], the negative logarithm of the EC50 (pEC50) in series [1] was 5.30 to 6.00. The CC50 in the series with MV4-11 and in the series with MOLM-13 was 5 to 10 µM each time. In addition, the half-maximal cytotoxic concentration (CC50) at 7 days in series [2] lay in the range of 15 to 30 µM.

Regarding `FC(F)(F)Cc1ccc2ncnc(N3CC4(CCN(Cc5ccc6cc[nH]c6c5)CC4)C3)c2c1` [Compound 89, 4-(7-((1H-indol-6-yl)methyl)-2,7-diazaspiro[3.5]nonan-2-yl)-6-(2,2,2-trifluoroethyl)quinazoline], the negative-log EC50 (pEC50) in series [1] is no less than 7.12. The CC50 was no more than 1 µM with MV4-11 and 1 to 5 µM with MOLM-13. In series [2], this compound came in with a CC50 at 7 days of no more than 5 µM.

Source of the values: US20250066358A1, “Inhibitors of Menin-MLL Interaction” (Bala Therapeutics, Inc., priority 2021, published 2025).
